Laboratory results as given in patent US9427604B2, “Use of benzyloxy-ethylamine derivatives as a preservative, preservation method, and compositions” (L'OREAL, priority 2009, dated 2016).

How the values were obtained:
Type in all cases: cell-based
Details in all cases: 7 days at 22° C.
[1] = test system: Candida albicans (Ca) ATCC 10231; experiment: Challenge test (artificial contamination) in aqueous solution, C. albicans
Experimental: (§1) The antimicrobial efficacy of compounds of formula (I) was evaluated via the challenge test or artificial contamination method after having introduced said compounds into water. The method of the challenge test consists of an artificial contamination of the sample with microbial strains from collection (bacteria, yeasts and moulds) and of an evaluation of the number of revivable microorganisms seven days after inoculation. […] 5 pure cultures of microorganisms are used. [table] The strains of gram−bacteria (Escherichia coli and Pseudomonas aeruginosa), gram+bacterium (Enterococcus faecalis), yeast (Candida albicans), and mould (Aspergillus niger) are inoculated into subculturing medium, respectively the day before inoculation for the bacteria and the yeast, and 5 days before inoculation for the mould. On the day of inoculation: • a suspension in tryptone salt diluent is prepared, respectively, for the bacteria and the yeast, so as to obtain by spectrophotometer a suspension with an optical density of between 35% and 45% of transmitted light at 544 nm; • for the mould, the spores are collected by washing the agar with 6 to 7 ml of harvesting solution and the suspension is recovered in a sterile tube or flask. After having homogenized the microbial suspension, 0.2 ml of inoculum (the suspensions are used pure: between 1×10^8 and 3×10^8 CFU per ml) are placed in each pill bottle and the microbial suspension is completely homogenized in the 20 g of product (=aqueous solution containing the compounds of formula (I) at the concentrations indicated) using a spatula. The content of microorganisms present in the product corresponds after homogenization to a concentration of 10^6 microorganisms per gram of product, i.e. inoculation to 1% of an inoculum containing 10^8 microorganisms per ml. After 7 days of contact time between the microorganisms and the product at 22° C.±2° C. and in the dark, ten-fold dilutions are carried out and the number of revivable microorganisms remaining in the product is counted.

[2] = test system: Enterococcus faecalis (Ef) ATCC 33186; experiment: Challenge test (artificial contamination) in aqueous solution, E. faecalis
Experimental: as §1

[3] = test system: Aspergillus niger (An) ATCC 6275; experiment: Challenge test (artificial contamination) in aqueous solution, A. niger
Experimental: as §1

[4] = test system: Pseudomonas aeruginosa (Pa) ATCC 19429; experiment: Challenge test (artificial contamination) in aqueous solution, P. aeruginosa
Experimental: as §1

[5] = test system: Escherichia coli (Ec) ATCC 8739; experiment: Challenge test (artificial contamination) in aqueous solution, E. coli
Experimental: as §1

[6] = content 0.01% in water, final pH 7, inoculation level 10^6 microorganisms/g
[7] = content 0.05% in water, final pH 7, inoculation level 10^6 microorganisms/g
[8] = content 0.1% in water, final pH 7.2, inoculation level 10^6 microorganisms/g
[9] = content 0.25% in water, final pH 6.9, inoculation level 10^6 microorganisms/g
[10] = content 0.5% in water, final pH 7.4, inoculation level 10^6 microorganisms/g
[11] = content 0.75% in water, final pH 7.4, inoculation level 10^6 microorganisms/g
[12] = content 1% in water, final pH 7.5, inoculation level 10^6 microorganisms/g
[13] = content 1% in water, final pH 6.6, inoculation level 10^6 microorganisms/g

In the case of `Cl.NCCOCc1ccccc1` [Compound A], the “No. of CFU/gram of product at T7 days, C. albicans” value (shortened to “No. of CFU/gram … C. albicans”) [1, 6] is reported as 3.2 × 10^6 CFU/gram of product, the “No. of CFU/gram … C. albicans” value [1, 7] is reported as 3.0 × 10^6 CFU/gram of product and the “No. of CFU/gram … C. albicans” value [1, 8] is reported as 2.8 × 10^6 CFU/gram of product. The “No. of CFU/gram … C. albicans” value [1, 9] was 2.3 × 10^6 CFU/gram of product, the “No. of CFU/gram … C. albicans” value [1, 10] was 1.3 × 10^6 CFU/gram of product and the “No. of CFU/gram … C. albicans” value [1, 11] was 5.8 × 10^3 CFU/gram of product. For the same molecule, the “No. of CFU/gram … C. albicans” value [1, 12] was <200 CFU/gram of product, the “No. of CFU/gram of product at T7 days, E. faecalis” value (shortened to “No. of CFU/gram … E. faecalis”) [2, 6] was 4.1 × 10^5 CFU/gram of product and the “No. of CFU/gram … E. faecalis” value [2, 7] was 3.3 × 10^5 CFU/gram of product. For the same molecule, the “No. of CFU/gram … E. faecalis” value [2, 8] was 6.9 × 10^4 CFU/gram of product, the “No. of CFU/gram … E. faecalis” value [2, 9] was 1.2 × 10^3 CFU/gram of product and the “No. of CFU/gram … E. faecalis” value [2, 10] was <200 CFU/gram of product. The “No. of CFU/gram … E. faecalis” value [2, 11] was <200 CFU/gram of product, the “No. of CFU/gram … E. faecalis” value [2, 12] was <200 CFU/gram of product and the “No. of CFU/gram of product at T7 days, A. niger” value (shortened to “No. of CFU/gram … A. niger”) [3, 6] was 1.4 × 10^6 CFU/gram of product. The “No. of CFU/gram … A. niger” value [3, 7] was 1.3 × 10^6 CFU/gram of product, the “No. of CFU/gram … A. niger” value [3, 8] was 1.0 × 10^6 CFU/gram of product and the “No. of CFU/gram … A. niger” value [3, 9] was 1.0 × 10^6 CFU/gram of product. For the same molecule, the “No. of CFU/gram … A. niger” value [3, 10] was 6.2 × 10^5 CFU/gram of product, the “No. of CFU/gram … A. niger” value [3, 11] was 1.6 × 10^5 CFU/gram of product and the “No. of CFU/gram … A. niger” value [3, 12] was 3.6 × 10^4 CFU/gram of product. The “No. of CFU/gram of product at T7 days, P. aeruginosa” value (“No. of CFU/gram … P. aeruginosa” below) [4, 6] was 9.0 × 10^6 CFU/gram of product, the “No. of CFU/gram … P. aeruginosa” value [4, 7] was 1.9 × 10^6 CFU/gram of product and the “No. of CFU/gram … P. aeruginosa” value [4, 8] was 1.5 × 10^5 CFU/gram of product. The “No. of CFU/gram … P. aeruginosa” value [4, 9] was 3.0 × 10^3 CFU/gram of product, the “No. of CFU/gram … P. aeruginosa” value [4, 10] was <200 CFU/gram of product and the “No. of CFU/gram … P. aeruginosa” value [4, 11] was <200 CFU/gram of product. The “No. of CFU/gram … P. aeruginosa” value [4, 12] was <200 CFU/gram of product, the “No. of CFU/gram of product at T7 days, E. coli” value (shortened to “No. of CFU/gram … E. coli”) [5, 6] was 7.4 × 10^6 CFU/gram of product and the “No. of CFU/gram … E. coli” value [5, 7] was 6.2 × 10^6 CFU/gram of product. The “No. of CFU/gram … E. coli” value [5, 8] was 1.9 × 10^6 CFU/gram of product, the “No. of CFU/gram … E. coli” value [5, 9] was 2.8 × 10^3 CFU/gram of product and the “No. of CFU/gram … E. coli” value [5, 10] was <200 CFU/gram of product. The “No. of CFU/gram … E. coli” value [5, 11] was <200 CFU/gram of product and the “No. of CFU/gram … E. coli” value [5, 12] was <200 CFU/gram of product.
With `Cl.c1ccc(CNCCOCc2ccccc2)cc1` [Compound B] the “No. of CFU/gram … C. albicans” value [1, 13] was <200 CFU/gram of product, the “No. of CFU/gram … E. faecalis” value [2, 13] was <200 CFU/gram of product and the “No. of CFU/gram … A. niger” value [3, 13] was <200 CFU/gram of product. For the same molecule, the “No. of CFU/gram … P. aeruginosa” value [4, 13] was <200 CFU/gram of product and the “No. of CFU/gram … E. coli” value [5, 13] was <200 CFU/gram of product.
